{
  "source": "patent US8895538B2",
  "about": "“Combination and composition that contains an antimicrobial, a glucocorticoid and an antimycotic” (Laboratories Senosiain S.A. de C.V., priority 2009, dated 2014)",
  "key": {"[1]": {"conditions": "cited from earlier work"}, "rats": {"tested_on": "rats", "conditions": "administered orally; cited from earlier work"}, "[2]": {"conditions": "in vivo; cited from earlier work"}, "mice": {"tested_on": "mice", "conditions": "administered orally; cited from earlier work"}, "[3]": {"assay": "Laboratory assays of sensitivity, solubility and stability of the active agents at different pH conditions", "type": "physicochemical", "experimental": "Laboratory assays were carried out for verifying the sensitivity, solubility and stability of the active agents at different pH conditions. Thus, their stability was tested at different pH conditions. Due to the sensitivity of the active agents, the addition order of these components, as well as the excipient and vehicle selection are of great importance for avoiding degradation or incompatibilities of said active agents."}},
  "data": [
    {"smiles": "C[C@H]1C[C@H]2[C@@H]3CCC4=CC(=O)C=C[C@]4(C)[C@@]3(F)[C@@H](O)C[C@]2(C)[C@@]1(O)C(=O)CO", "note": "[Betametasone]", "values": [
      {"measurement": "solubility in water", "setting": "[1]; water", "value": "almost insoluble"}
    ]},
    {"smiles": "Clc1ccccc1C(c1ccccc1)(c1ccccc1)n1ccnc1", "note": "[Clotrimazole]", "values": [
      {"measurement": "LD50", "setting": "rats", "value": 708, "unit": "mg/kg"},
      {"measurement": "hydrolysis in acid solution at high temperature", "setting": "[1]; acid solution, high temperature", "value": "rapidly hydrolised"},
      {"measurement": "absorbed in topical applications", "setting": "[2]", "value": "3-10 % of the dose"},
      {"measurement": "LD50", "setting": "mice", "value": 923, "unit": "mg/kg"}
    ]},
    {"smiles": "CC(=O)O[C@H]1C[C@@]2(C)[C@@H](C[C@@H](O)[C@H]3[C@@]4(C)CC[C@@H](O)[C@@H](C)[C@@H]4CC[C@@]32C)/C1=C(\\CCC=C(C)C)C(=O)O", "note": "[Fusidic acid]", "values": [
      {"measurement": "stability in the presence of acid substances", "setting": "[3]", "value": "greatly reduced"}
    ]}
  ]
}
